Test results published in patent US20170369529A1, “CELL PENETRATING PEPTIDES” (Hoffmann-La Roche Inc., priority 2014, published 2017).
Positions of bridges follow the written chain, without caps; N, C: chain ends. Non-standard residues stand in square brackets, D forms with d. Nle = CCCC[C@H](N)C(=O)O; AEEA = NCCOCCOCC(=O)O; Fluo = fluorescein

Tests used:
Type in all cases: cell-based
[1] = system: Jurkat; assay: Cell penetration (cellular uptake by confocal microscopy) in Jurkat cells; details: t 2 h, 2 μM CPP, no fetal calf serum, 37° C., fluorescein fluorescence
Experimental: (§1) Methods and Procedures: Cells were plated onto μ-slide 8 well chambered coverslips (IBIDI) with ibidi standard-bottom and cultured overnight. Peptide stocks were prepared in MillQ and were diluted in cell growth media for cellular uptake studies. Cells were carefully washed with culture medium without fetal calf serum, incubated with 2 μM CPP concentration in absence of fetal calf serum and analyzed by confocal microscopy regarding uptake efficiency and localization over 2 h at 37° C. Finally, trypan blue (0.4% end concentration) was administered to quench cell surface fluorescence followed by an endpoint imaging step. Plates were imaged with an excitation at 488 nm and detection of fluorescence over 500-550 nm (fluorescein) using a TCS SP5 confocal microscope (Leica 174 Microsystems, Mannheim, Germany) equipped with an HCX PL APO 175 63×N.A. 1.2 water immersion lens and a temperature-controlled microscope stage.

[2] = system: HEK293T cells; assay: Cell penetration (cellular uptake by confocal microscopy) in HEK293T cells; details: 2 μM CPP; for cell penetration, HEK293T (t2 h): t 2 h, no fetal calf serum, 37° C., fluorescein fluorescence
Experimental: (§2) The peptides of the invention were tested for cell penetration in HeLa and HEK293T cell lines.
(§3) Materials: The HeLa (DSMZ) and HEK293T cells were maintained in growth media and then passaged every 2-3 days. Growth media for HeLa cells was RPMI 1640, 10% fetal calf serum, MEM-non-essential amino acids, sodium pyruvate and L-glutamine (GIBCO). Growth media for HEK293T DMEM was supplemented with 10% fetal calf serum, MEM-non-essential amino acids, sodium pyruvate and glutamine (all GIBCO).
as §1

[3] = system: HeLa cells; assay: Cell penetration (cellular uptake by confocal microscopy) in HeLa cells; details: 2 μM CPP; for penetration of HeLa cells (in words) / localization of fluorescence in HeLa cells: confocal microscopy; for penetration of HeLa cells (in words): intracellular signal; for cell penetration, HeLa(t2 h): t 2 h
Experimental: as §2, §3, §1

[4] = no fetal calf serum, 37° C., fluorescein fluorescence

Row | Substance | cell penetration, Jurkat (t2 h) [1] | cell penetration, HEK293T (t2 h) [2] | penetration of HeLa cells (in words) [3] | cell penetration, HeLa(t2 h) [3, 4] | localization of fluorescence in HeLa cells [3] | cell penetration, HeLa (t30 min) ([3]; t 30 min, no fetal calf serum, 37° C., fluorescein fluorescence) | localization of fluorescence in HEK293T cells ([2]; confocal microscopy)
1 | Fluo-(D-Met)-Ile-(D-Ile)-Leu-Ile-Ile-Gly-Ser-Thr-Ser-Arg-Asp-His-Nle-Val-Leu-His-Glu-Tyr-Val-Asn-Ala-Ala-Gly-Ile-Thr-Ado-NH2 (Fluo-[dM]I[dI]LIIGSTSRDH[Nle]VLHEYVNAAGIT-{AEEA-NH2}) [Example 5] | 0.18 | 0.5 | low intracellular signals | 0.22 |  |  | 
2 | Fluo-Met-Ile-Ile-Leu-Ile-Ile-Gly-Ser-Thr-Ser-Arg-Asp-His-Met-Val-Leu-His-Glu-Tyr-Val-Asn-Ala-Ala-Gly-Ile-Thr-NH2 (fluorescein-MIILIIGSTSRDHMVLHEYVNAAGIT-NH2) [Example 1] |  |  | high | 0.11 | localized in endosomes and cytosol | 0.13 | 
3 | Fluo-Met-Ile-Ile-Leu-Ile-Ile-Met-Gly-Val-Ala-Asp-Leu-Ile-Lys-Lys-Phe-Glu-Ser-Ile-Ser-Lys-Glu-Glu-NH2 [Example 6] | 0.44 | 0.08 | low intracellular signals | 0.14 |  |  | 
4 | Fluo-Nle-Ile-Ile-Leu-Ile-Ile-Gly-Ser-Thr-Ser-Arg-Asp-His-Nle-Val-Leu-His-Glu-Tyr-Val-Asn-Ala-Ala-Gly-Ile-Thr-Ado-NH2 (Fluo-[Nle]IILIIGSTSRDH[Nle]VLHEYVNAAGIT-{AEEA-NH2}) [Example 4] | 0.85 | 0.16 |  | 0.12 |  |  | 
5 | Fluo-Phe-Ile-cyclo(Asp-Ile-Ile-Ile-Lys)-Ile-Leu-Leu-Ile-Gly-Ser-Thr-Ser-Arg-Asp-His-Nle-Val-Leu-His-Glu-Tyr-Val-Asn-Ala-Ala-Gly-Ile-Thr-Ado-NH2 (Fluo-FIDIIIKILLIGSTSRDH[Nle]VLHEYVNAAGIT-{AEEA-NH2}; lactam 3-7) [Example 7] | 1.35 | 0.28 | high | 0.28 | localized in endosomes |  | pronounced cytosolic and partly endosomal fluorescence
6 | Fluo-cyclo(Lys-Ile-Ile-Ile-Ile-Asp)-Gly-Ser-Thr-Ser-Arg-Asp-His-Nle-Val-Leu-His-Glu-Tyr-Val-Asn-Ala-Ala-Gly-Ile-Thr-Ado-NH2 (Fluo-KIIIIDGSTSRDH[Nle]VLHEYVNAAGIT-{AEEA-NH2}; lactam 1-6) [Example 2] | 0.9 | 0.23 | low intracellular signals | 0.18 |  |  | 
7 | Fluo-cyclo(Lys-Nle-Ile-Ile-Leu-Ile-Ile-Asp)-Gly-Ser-Thr-Ser-Arg-Asp-His-Nle-Val-Leu-His-Glu-Tyr-Val-Asn-Ala-Ala-Gly-Ile-Thr-Ado-NH2 (Fluo-K[Nle]IILIIDGSTSRDH[Nle]VLHEYVNAAGIT-{AEEA-NH2}; lactam 1-8) [Example 3] | 0.77 | 0.35 | low intracellular signals | 0.28 |  |  | 
